Experimental data taken from patent US20150141375A1 (priority 2009, published 2015).
pEC50: −log10 of the molar value. Several values for one entry are separate records, joined by “and”; a condition that tells them apart may be missing. Identical values can stand only once. Entries after “also recorded” stand apart in the source; their conditions may differ. Like-named read-outs stand apart in the source and are kept apart here.

What was measured:
[1] = test system: vaccinia virus; format: in vivo, human; conditions: detectable while on ST-246 and VIG
[2] = test system: vaccinia virus; conditions: CMX001 200 mg initial dose plus other therapies (MMWR 2009); cited from earlier work
[3] = test system: Vaccinia Virus; assay: microbe, parasite or virus in culture; format: cell-based
[4] = test system: HSV-2, strain MS; conditions: previous work; cited from earlier work
[5] = test system: Adenovirus; assay: microbe, parasite or virus in culture; format: cell-based; conditions: for pEC50: unidentified adenovirus
[6] = test system: BKV(Dunlop); assay: BKV(Dunlop) replication in primary human RPTECs (qPCR, RT-qPCR, western blot, immunofluorescence); format: cell-based, BK virus; conditions: for antiviral activity of stored stock compared to freshly prepared drug: tested at 0.31 uM
Experimental: RPTECs were infected with BKV(Dunlop). CMX001 was added before and 2 h postinfection (hpi). Cells and supernatants were harvested 24-72 hpi. BKV replication was examined by TaqMan assays, western blotting, IF staining and viability of RPTECs was examined by WST-1 assay, BrdU incorporation and a TaqMan assay.
Primary human renal proximal tubule epithelial cells (RPTECs), BKV(Dunlop) and all methods as previously described by Bernhoff et al (See Bernhoff et al., Cidofovir inhibits polyomavirus BK replication in human renal tubular cells downstream of viral early gene expression, Am J Transplant 8, 1413-1422 (2008).) Only one exception, quantitative PCR (qPCR) to quantify intracellular or extracellular BKV DNA load was performed with a different primer/probe set also targeting the LTag gene (See Hirsch, et al., J. Prospective study of polyomavirus type BK replication and nephropathy in renal-transplant recipients, N Engl J Med., 347, 488-496 (2002)). Before each experiment, CMX001 was freshly dissolved to 1 mg/ml in methanol/water/ammonium hydroxide (50/50/2). It was further diluted in RPTEC growth medium.
Before each experiment, CMX001 was freshly dissolved to 1 mg/ml in methanol/water/ammonium hydroxide (50/50/2) and further diluted in RPTEC growth medium. About 50% confluent RPTECs were infected with BKV (Dunlop) MOI 1. After 2 h incubation at 37° C., the virus was replaced with fresh medium with or without CMX001 unless otherwise stated.
At 24, 48 and 72 hpi cells were lysed and total RNA extracted using the mirVana PARIS kit (Ambion). RNA samples were treated with DNase turbo (Ambion) to remove residual DNA before the RNA quality was checked by agarose gel electrophoresis and RNA concentration was determined. cDNA was generated from 250 ng RNA per sample using the High Capacity cDNA kit (Applied Biosystems).
To assay extracellular BKV loads, cell culture supernatants were harvested at 24, 48 and 72 hpi and frozen in −70° C. until automatic extraction by a robot (GenoM-48, Qiagen, www.qiagen.com). For intracellular BKV loads, cells were washed, trypsinized and pelleted at 220 g for 10 min, resuspended in G2 buffer from the MagAttract DNA Mini M48 kit (Qiagen) and frozen at −70° C. until extraction with the same robot.
To quantify intracellular or extracellular BKV DNA load, a quantitative PCR (qPCR) with primers and probe targeting the large T-antigen (LT-ag) gene was used. For normalization of intracellular BKV DNA each sample was analyzed in parallel by the qPCR for the gene for aspartoacylase (ACY) to correct for cellular DNA.
Cells were lysed in Cell Disruption buffer (mirVana PARIS kit, Ambion) 24, 48 and 72 hpi and stored at −70° C. until separation with SDS polyacrylamidegel electrophoresis (SDS-PAGE) followed by blotting onto PVDF membrane. Detection of BKV and cellular proteins was performed with polyclonal rabbit antiserum directed against LT-ag (1:2000), VP1 (1:10000), or agno (1:10000) (1, 27) and a monoclonal mouse antibody directed against GAPDH (Ab8245; 1:5000, Abcam, www.abcam.com) followed by anti-rabbit and anti-mouse infrared dye-labeled secondary antibodies (IR Dye 800, Rockland, www.rockland-inc.com and Alexa Fluor 680, Invitrogen, www.invitrogen.com) both 1:5000 before detection with Licor Odyssey Infrared detection system.
Cells were washed in PBS, methanol fixed, blocked with 3% goat-serum in PBS for 30 min, followed by subsequently incubation with primary (37° C.) and secondary (r.t.) antibodies for 30 min. Primary antibodies were monoclonal anti-SV40 LT-ag antibody (Ab-2 Pab416; 1:100, Chemicon, www.chemicon.com) and polyclonal rabbit antiserum directed against agno or VP1 (both 1:1000). The secondary antibodies were anti-mouse conjugated with AlexaFluor 568 and anti-rabbit conjugated with AlexaFluor 488 (1:500; Molecular Probes, www.invitrogen.com). Nuclei were labeled with DRAQ5™ (Biostatus, www.biostatus.com). […]

[7] = Oral toxicology studies, nephrotoxicity; format: in vivo, mice, rats, rabbits and monkeys
Description: In addition, over twenty-one toxicology studies have been conducted in mice, rats, rabbits and monkeys with CMX001 being delivered by the oral route.

[8] = test system: CMV
[9] = test system: JCV; assay: Patients with JC viral infections treated with CMX001; format: in vivo, human
Experimental: A study has been conducted on patients with various JC viral infections and diseases associated with JC virus. After these patients are treated with CMX001, the patients have shown significant improvements.

Structure (SMILES): CCCCCCCCCCCCCCCCOCCCOP(=O)(O)CO[C@H](CO)Cn1ccc(N)nc1=O [CMX001, Hexadecyloxypropyl-cidofovir]
- viable vaccinia in lesions [1]: Eliminated
- time until virus cultures at the vaccination site became negative for vaccinia virus [2]: ≤ 5 days
- Enhanced Activity ([3]; CMX001 versus cidofovir EC50): 57
- pEC50 ([3]; Orthopoxvirus vaccinia, HFF): 6.10
- optimal dose of CMX001 in this model [4]: 5 mg/kg
- fold more activity compared to cidofovir ([5]; AdV 31): 5 fold
- pEC50 ([5]; AdV 31): 6.55
- pEC50 ([5]; majority of adenovirus serotypes): > 7.30
- BKV-infected cells, immunofluorescence ([6]; 10 μM CMX001, 72 hpi): no BKV-infected cell was observed
- IC90 ([6]; Betapolyomavirus hominis, RPTEC, RPTECs, 72 h p.i., viral input subtracted, read-out: IC90, extracellular BKV load): 310 nM
- reduction of late protein expression ([6]; CMX001 0.31 μM): about 70%
- reduction of BKV load at 96 hpi ([6]; CMX001 0.31 μM for 24 h): approximately 90%
- effect on early gene (LT-ag) expression ([6]; CMX001 0.31 μM, 24 hpi): no effect; also recorded: No difference
- reduction of late gene expression ([6]; CMX001 0.31 μM, 48 and 72 hpi): 70-90%
- reduction of BKV DNA replication (intracellular BKV load) ([6]; CMX001 0.31 μM, 48 hpi): 94% and 90%
- reduction of LT-ag mRNA ([6]; CMX001 0.31 μM, 48 hpi): 33%
- reduction of agno, western blotting ([6]; CMX001 0.31 μM, 48 hpi): 97%
- reduction of late mRNA levels ([6]; CMX001 0.31 μM, 48 hpi): 93%
- reduction of BKV DNA replication (intracellular BKV load) ([6]; CMX001 0.31 μM, 72 hpi): 63% and 91%
- reduction of LT-ag mRNA ([6]; CMX001 0.31 μM, 72 hpi): 64%
- reduction of agno, western blotting ([6]; CMX001 0.31 μM, 72 hpi): 96%
- reduction of late mRNA levels ([6]; CMX001 0.31 μM, 72 hpi): 82%
- decrease of VP1, western blotting ([6]; CMX001 0.31 μM, 48 h p.i.): 86% and 85%
- reduction of LTag staining ([6]; CMX001 0.31 μM, 48 h p.i.): 33%
- decrease of VP1, western blotting ([6]; CMX001 0.31 μM, 72 h p.i.): 63% and 96%
- reduction of LTag staining ([6]; CMX001 0.31 μM, 72 h p.i.): 30%
- decrease in BKV agnoprotein expressing cells ([6]; CMX001 0.31 uM, immunofluorescence 72 h p.i.): approximately 60%
- exposure time for IC-90 of BKV progeny loads at 96 hpi ([6]; CMX001 0.31 μM, CDV 40 μg/mL): 24 h
- reduction of viral load by pre-treatment ([6]; pre-treatment 23-24 h until one hour before infection, BKV load 72 h p.i.): about 50%
- effect of pre-treatment on BKV load ([6]; pre-treatment 4 hours, ending 20 hours before infection): hardly any effect; also recorded: did not inhibit BKV replication
- antiviral activity of stored stock compared to freshly prepared drug ([6]; stock 1 mg/ml one week at 4° C.): less than 60%
- antiviral activity of stored stock compared to freshly prepared drug ([6]; stock 1 mg/ml one week at −20° C.): approximately 90%
- indication of nephrotoxicity ([7]; over twenty-one toxicology studies, oral route): In none of these studies
- evidence of nephrotoxicity ([7]; single and repeated dosing in animals and human volunteers, 0.1 mg/kg to 4.0 mg/kg): no evidence of nephrotoxicity
- peak plasma concentration of CMX001 ([8]; person with renal failure, following the first dose): 264 ng/mL
- Plasma CMV by PCR ([8]; person, Week 5, 120 mg): 3307
- Plasma CMV by PCR ([8]; person, Week 10, 120 mg): 1541
- CMV DNA ([8]; person, following 2 weeks of skipped doses): 5,037 copies/mL
- CMV plasma DNA ([8]; person, following the first dose (180 mg)): undetectable
- CMV DNA ([8]; person, following the start of treatment): undetectable
- renal, liver, or hematologic function ([8]; person, more than 16 weeks): No drug-related adverse changes in renal, liver, or hematologic function were observed
- JCV Viral Load, Urine ([9]; Sub 1, D7): D7: 557 copies/mL
- JCV Viral Load, CSF ([9]; Sub 1, ~5 wks 2 mg/kg, D32 (Pre: 306)): D32: <300 copies/mL
- JCV Viral Load, CSF ([9]; Sub 3, 4 days (2 doses) 4 mg/kg, Post (Pre: 518)): Post: <500 copies/mL
- JCV Viral Load, Blood ([9]; Sub 4, EOT (Pre: 148)): EOT: 261 copies/mL
- JCV Viral Load, CSF ([9]; Sub 4, ~2.5 wks 4 mg/kg, EOT (Pre: 16,474)): EOT: 1070 copies/mL
- JCV Viral Load, Blood ([9]; Sub 5, ongoing ~3 wks 4 mg/kg, D7 (Pre: 1800)): D7 500 copies/mL
- Clinical Comment ([9]; individual patients Sub 1-5 during CMX001 treatment): During treatment, the patient regained swallowing; also recorded: became undetectable (<300 copies/mL) in the CSF
